From patent publication US20060100258A1, “Growth promotion method” (priority 2003, published 2006)

How the values were obtained:
Type in all cases: in vivo
chicks = assay: Effect on chick growth: weight gain after a single treatment
Experimental: FIG. 2 is a graph showing the average percentage weight increase in chicks after single dosing with Iksin at 12 μg/g in DMSO, 100 μg/g in DMSO, 200 μg/g in distilled water/Tween20 and 400 μg/g in distilled water/tween20 compared to untreated chicks.
(§1) Day-old chicks were orally administered Iksin in DMSO at 100 μg/g, 125 μg/g, 150 μg/g and 200 μg/g body weight and in Distilled Water (DW)/5% Tween-20 at 100 μg/g, 200 μg/g, 400 μg/g and 500 μg/g body weight.
Treatment with Iksin 12 μg/g DMSO, 200 and 400 μg/g DW/T20 gave a mean weight gain of 17%.

day-old broiler chicks = assay: Determination of dose range: maximum tolerated oral dose in day-old broiler chicks
Experimental: as §1
The maximum tolerated oral dose of Iksin for day-old broiler chicks was 200 μg/g Iksin/DMSO and ≧500 μg/g in DW/T20.

[1] = Plasma/blood levels of Iksin in chicks after a single oral dose; conditions: for peak levels (blood/plasma): observed at 48 h (FIG. 1)
Experimental: FIG. 1 is a graph showing plasma levels of Iksin in chicks after treatment with Iksin at 100 μg/g in DMSO and at 400 μg/g in distilled water/Tween20; and
as §1

Q: With C/C(=C\c1ccc2c(c1)OCO2)[N+](=O)[O-] [Iksin, 3,4-methylenedioxy-β-methyl-β-nitrostyrene] as the compound, how does the “weight gain in chicks” value (chicks; all doses and formulations, 4 days after a single treatment (FIG. 2)) read?
A: increased weight gain

Q: What about the mean weight gain (chicks; chicks, Iksin 12 μg/g DMSO, 200 and 400 μg/g DW/T20 (mean of these groups), 4 days after a single treatment) of the same compound?
A: 17%

Q: And the “increase in weight gain over the group of control chicks” value (chicks; chicks, Iksin 100 μg/g DMSO, 4 days after a single treatment)?
A: 32%

Q: And the “maximum tolerated oral dose” value (day-old broiler chicks; Iksin in DMSO)?
A: 200 µg/g

Q: And the “maximum tolerated oral dose” value (day-old broiler chicks; Iksin in DW/T20 (distilled water/5% Tween-20))?
A: ≥ 500 µg/g

Q: And the Iksin blood levels ([1]; single oral dose 12 μg/g DMSO)?
A: below the limits of detection

Q: And the “peak levels (blood/plasma)” value ([1]; single oral dose 100 μg/g DMSO)?
A: 850 µg/g

Q: And the Iksin blood levels ([1]; single oral dose 200 μg/g DW)?
A: below the limits of detection

Q: What about the “peak levels (blood/plasma)” value ([1]; single oral dose 400 μg/g DW) of the same compound?
A: 850 µg/g

Q: And the “absorption from a single oral dosing” value ([1]; single oral dosing)?
A: Very little Iksin was absorbed
